Structures can show the parent of a compound that is named as a salt.
melting point | SMILES
101.2 to 109.5 °C | COc1cccc2sc([C@@H]3CCN(C[C@H](O)COc4cccc5oc(C)cc45)[C@H](C)C3)cc12 (as salt: oxalate) [Example 26, (2S)-(−)-3-[(2R,4R)-4-(4-Methoxybenzo[b]thiophen-2-yl)-2-methylpiperidin-1-yl]-1-(2-methylbenzofuran-4-yl)oxy-2-propanol]
98 °C (dec.) | COc1cccc2sc([C@H]3CCN(C[C@H](O)COc4cccc5oc(C)cc45)[C@@H](C)C3)cc12 (as salt: oxalate) [Example 27, (2S)-(+)-3-[(2S,4S)-4-(4-Methoxybenzo[b]thiophen-2-yl)-2-methylpiperidin-1-yl]-1-(2-methylbenzofuran-4-yl)oxy-2-propanol]
99.2 to 103 °C | COc1cccc2sc([C@@H]3CCN(C[C@H](O)COc4cccc5oc(C)cc45)[C@@H](C)C3)cc12 (as salt: oxalate) [Example 28, (2S)-(−)-3-[(2S,4R)-4-(4-Methoxybenzo[b]thiophen-2-yl)-2-methylpiperidin-1-yl]-1-(2-methylbenzofuran-4-yl)oxy-2-propanol]
92.5 °C (dec.) | COc1cccc2sc([C@H]3CCN(C[C@H](O)COc4cccc5oc(C)cc45)[C@H](C)C3)cc12 (as salt: oxalate) [Example 29, (2S)-(+)-3-[(2R,4S)-4-(4-Methoxybenzo[b]thiophen-2-yl)-2-methylpiperidin-1-yl]-1-(2-methylbenzofuran-4-yl)oxy-2-propanol]
88.5 °C (dec.) | Cc1cc2c(OC[C@@H](O)CN3CC[C@@H](c4cc5cc(Cl)ccc5s4)C[C@H]3C)cccc2o1 (as salt: salt) [Example 30, (2S)-(−)-3-[(2R,4R)-4-(5-Chlorobenzo[b]thiophen-2-yl)-2-methylpiperidin-1-yl]-1-(2-methylbenzofuran-4-yl)oxy-2-propanol]
204.1 to 208.3 °C | Cc1cc2c(OC[C@@H](O)CN3CC[C@H](c4cc5cc(Cl)ccc5s4)C[C@@H]3C)cccc2o1 (as salt: salt) [Example 31, (2S)-3-[(2S,4S)-4-(5-Chlorobenzo[b]thiophen-2-yl)-2-methylpiperidin-1-yl]-1-(2-methylbenzofuran-4-yl)oxy-2-propanol]
78.5 °C (dec.) | Cc1cc2c(OC[C@@H](O)CN3CC[C@@H](c4cc5cc(Cl)ccc5s4)C[C@@H]3C)cccc2o1 (as salt: salt) [Example 32, (2S)-3-[(2S,4R)-4-(5-Chlorobenzo[b]thiophen-2-yl)-2-methylpiperidin-1-yl]-1-(2-methylbenzofuran-4-yl)oxy-2-propanol]
81.4 °C (dec.) | Cc1cc2c(OC[C@@H](O)CN3CC[C@H](c4cc5cc(Cl)ccc5s4)C[C@H]3C)cccc2o1 (as salt: salt) [Example 33, (2S)-(−)-3-[(2R,4S)-4-(5-Chloro-benzo[b]thiophen-2-yl)-2-methylpiperidin-1-yl]-1-(2-methylbenzofuran-4-yl)oxy-2-propanol]
101.1 °C (dec.) | COc1cccc2sc(C3CCN(C[C@H](O)COc4cccc5oc(C)cc45)C(C)(C)C3)cc12 (single isomer, unassigned; isomer 1) (as salt: hydrochloride) [Example 34]
83.5 °C (dec.) | COc1cccc2sc(C3CCN(C[C@H](O)COc4cccc5oc(C)cc45)C(C)(C)C3)cc12 (single isomer, unassigned; isomer 2) (as salt: hydrochloride) [Example 35]
145 to 148 °C | COc1cccc2sc(C3CCN(C[C@H](O)COc4cccc5c4OC(C)(C)C5)[C@@H](C)C3)cc12.O=C(O)C(=O)O (stereo in doubt) [Example 8, (2S)-(+)-1-(2,3-Dihydro-2,2-dimethylbenzofuran-7-yl)oxy-3-[(2S, 4R)-4-(4-methoxybenzo[b]thiophen-2-yl)-2-methylpiperidinyl]-2-propanol Oxalate]
97 to 102 °C (dec.) | COc1ccc2cc([C@@H]3CCN(C[C@H](O)COc4cccc5occc45)[C@H](C)C3)sc2c1.O=C(O)C(=O)O [Example 2, (2S)-(−)-1-(Benzofuran-4-yl)oxy-3-[(2R,4R)-4-(6-methoxybenzo[b]thiophen-2-yl)-2-methylpiperidinyl]-2-propanol Oxalate]
97 to 102 °C | COc1ccc2cc([C@H]3CCN(C[C@H](O)COc4cccc5occc45)[C@@H](C)C3)sc2c1.O=C(O)C(=O)O [Example 3, (2S)-(+)-1-(Benzofuran-4-yl)oxy-3-[(2S.4S)-4-(6-methoxybenzo[b]thiophen-2-yl)-2-methylpiperidinyl]-2-propanol Oxalate]
130 to 133 °C | COc1ccc2cc([C@@H]3CCN(C[C@H](O)COc4cccc5occc45)[C@@H](C)C3)sc2c1.O=C(O)C(=O)O [Example 4, (2S)-1-(Benzofuran-4-yl)oxy-3-[(2S,4R)-4-(6-methoxybenzo[b]thiophen-2-yl)-2-methylpiperidinyl]-2-propanol Oxalate]
196 to 198 °C (dec.) | O=C(O)C(=O)O.O[C@H](COc1cccc2occc12)CN1CCC(c2cc3ccc(F)cc3s2)CC1 [Example 6, (2S)-(+)-1-(Benzofuran-4-yl)oxy-3-[4-(6-fluorobenzo[b]thiophen-2-yl)piperidinyl]-2-propanol Oxalate]
88 to 93 °C | COc1cccc2sc([C@@H]3CCN(C[C@H](O)COc4cccc5c4OC(C)(C)C5)[C@H](C)C3)cc12.O=C(O)C(=O)O [Example 7, (2S)-(−)-1-(2,3-Dihydro-2,2-dimethylbenzofuran-7-yl)oxy-3-[(2R,4R)-4-(4-methoxybenzo[b]thiophen-2-yl)-2-methylpiperidinyl]-2-propanol Oxalate]
83 to 86 °C | COc1cccc2sc([C@@H]3CCN(C[C@H](O)COc4cccc5c4OC(C)(C)C5)[C@@H](C)C3)cc12.O=C(O)C(=O)O [Example 9, (2S)-1-(2,3-Dihydro-2,2-dimethylbenzofuran-7-yl)oxy-3-[(2S,4R)-4-(4-methoxybenzo[b]thiophen-2-yl)-2-methylylpiperidinyl]-2-propanol Oxalate]
93 to 96 °C | COc1cccc2sc([C@H]3CCN(C[C@H](O)COc4cccc5c4OC(C)(C)C5)[C@H](C)C3)cc12.O=C(O)C(=O)O [Example 10, (2S)-1-(2,3-Dihydro-2,2-dimethylbenzofuran-7-yl)oxy-3-[(2R,4S)-4-(4-methoxybenzo[b]thiophen-2-yl)-2-methylpiperidinyl]-2-propanol Oxalate]
